Results taken from patent publication US20060228297A1, “Thorium-227 for use in radiotherapy of soft tissue disease” (priority 2003, published 2006).

Test system: humans
Test: Estimate of ^223Ra toxicity from prior art (translated from ^224Ra dog data)
Settings: expected for humans, assuming similar haematological toxicity in dogs and humans
Source text: Because of the lack of human data on toxicity of radium-223 and radium-224, an assumed radiotoxicity for ^223Ra can be derived as follows, using published data for radium-224 in dogs. The decay series (including the decays of daughter nuclides) of both ^224Ra and ^223Ra causes an emission of four alpha panicles per radium atoms. The total alpha particle doses from ^223Ra and ^224Ra in equilibrium with daughters are approximately 26.3 and 27.1 MeV per transformation respectively and are therefore closely equivalent. The half-lives of ^224Ra is 3.62 days and for ^223Ra it is 11.43 days. This means that per activity unit injected, the skeletal dose from ^223Ra would be approximately 3.1 times that from ^224Ra, taking into account alpha energy and half-life differences, and assuming long-term biological retention of the radionuclide (i.e., the clearance is governed by the physical half-life of the radionuclide). This is a valid assumption because Ra is a Ca analogue and is readily incorporated into the skeleton.
At 350 kBq/kg death, caused by haematological dyscrasia resulting from bone marrow destruction, occurred in some subjects (3 dogs out of 8). It may therefore be assumed that the maximum tolerable dose of ^224Ra is between 120 and 350 kBq/kg in dogs. Translated into ^223Ra, as described above, this would correspond to 39-113 kBq/kg of ^223Ra. […]

[223Ra] [^223Ra, radium-223]
Maximum tolerable dose, translated from ^224Ra dog data: 39-113 kBq/kg
